Reference: paper PMC9053583, “A novel series of phenolic temozolomide (TMZ) esters with 4 to 5-fold increased potency, compared to TMZ, against glioma cells irrespective of MGMT expression” (RSC Advances, 2020)
Read-outs that look alike come from different tables or passages of the source.

What was measured:
GOS-3 = assay: CellTiter-Glo cytotoxicity against GOS-3 cells; format: cell-based; conditions: Homo sapiens; 144 hours incubation, IC50 ± SD (n = 3)
Method: (§1) Apoptosis of glioma cells induced by TMZ, occurs at least 120 hours after treatment.[7] Consequently, cells were incubated for 144 hours with specified TMZ analogues in the in vitro investigations in order to obtain more reliable IC50 values.
(§2) 1321-N1 (human astrocytoma) was maintained in DMEM medium supplemented with 2 mM L-glutamine and 10% FBS. GOS-3, (human brain mixed astro-oligodendroglioma) was maintained in DMEM medium supplemented with 2 mM L-glutamine and 10% […]. U87-MG, (human glioblastoma) and SVGp12 (normal human astroglia) were maintained in EMEM medium supplemented with 2 mM L-glutamine, 1 mM sodium pyruvate and 10% FBS. All cell lines were incubated at 37 °C and 5% CO2 in a humidified incubator. Primary BTNW cultures were maintained in Ham's F10 nutrient mixture, containing 20 mM HEPES, 2 mM glutamine and 10% FBS. Primary cultures were incubated in a humidified incubator at 37 °C.
(§3) Cells were seeded in the appropriate media in each well of a Costar 96-well plate at a density of 5 × 10^2 immortalised cells; 2 × 10^3 (primary cells). The plates were incubated at 37 °C and 5% CO2 in a humidified incubator for 24 hours to allow cells to adhere. Each of the drugs tested were dissolved in DMSO to afford a 200 mM stock solution. The stock solutions were diluted with medium to afford the final working concentrations, ensuring DMSO concentration was no greater than 0.5% (v/v). Drug concentrations were added to the cells and incubated for 144 hours. After incubation, the drug concentrations were removed and replaced with 100 μL of CellTiter-Glo® and 100 μL of media. The luminescence of each well was measured on GENios Pro plate reader. The results for each of the drug concentrations were expressed as a percentage of the control wells. For cell lines, the regression equation for a polynomial line of best fit of order 2 was used to calculate the IC50. In the case of the in vitro model used in the present study, the IC50 was defined as the concentration of drug that results in a 50% reduction in oxyluciferin production. Primary culture cells were incubated with clinically relevant concentrations for 144 hours. Viability was expressed as a percentage of the control wells. Each experiment involving cell lines was carried out in triplicate of triplicates. Experiments using patient derived primary cultures were carried out in triplicate.
(§4) Initial screening of the 25 analogues was completed using the U87-MG cell line. The most promising analogues from the initial screening were taken forward and tested against the 1321-N1, GOS-3 and SVG-p12 cell lines. The results of all 4 cell lines were compiled and the analogues that were deemed to be the most promising drug candidates were tested against primary cultures at clinically relevant concentrations.

SVGp12 = assay: CellTiter-Glo cytotoxicity against normal SVGp12 cell line; format: cell-based; conditions: Homo sapiens, 144 hours incubation, IC50 ± SD (n = 3)
Method: as §1, §2, §3, §4

BTNW374 (MGMT+) = assay: Cell viability of patient derived primary GBM culture BTNW374 (MGMT+); format: cell-based, human; conditions: human, 144 h, 75 μM
Method: (§5) Fig. 2 (A) Cell viability of BTNW914 (MGMT−) after treatment by TMZ and phenyl TMZ ester analogues at various clinically relevant concentrations and incubation for 6 days. (B) Cell Viability of BTNW374 (MGMT+) after treatment by TMZ and phenyl TMZ ester analogues at various clinically relevant concentrations. Values are reported as the percentage of viable cells ± SD, n = 3.
(§6) Cytotoxic evaluation of the analogues was completed against 4 cell lines and 2 primary GBM cultures. The human glioma cell lines, GOS-3, U87-MG and 1321-N1 along with the human astroglial cell line, SVGp12, were purchased from The European Collection of Cell Cultures (ECCAC, UK) and Deutsche Sammlung von Mikroorganismen und Zellkulturen (DMSZ, Germany). Patient derived primary GBM cultures, BTNW374 and BTNW914, were obtained from The Brain Tumour North West Tissue Bank in collaboration with The Royal Preston Hospital. Patient data for primary cells was included as part of the ESI. ^†
as §2, §3

[1] = test system: porcine liver esterase (PLE); assay: Stability of phenolic TMZ esters on exposure to porcine liver esterase; format: in vitro ADME; conditions: pH 6, 37 °C
Method: The hydrolysis was monitored by the decrease in the peak area of the corresponding TMZ esters, however, due to sensitivity of the imidazotetrazine ring to pH, the experiments were carried out at pH 6 to avoid the formation of imidazoles. The validation of the analytical method also involved investigating the stability of the imidazotetrazine ring whilst ensuring PLE retained a significant level of activity.
A disodium phosphate, citric acid buffer (pH 6) was prepared by using disodium phosphate (Na2HPO4·12H2O, 200 mM) and citric acid (100 mM). A stock solution of 80 mg/100 mL of each of the TMZ esters (3h, 3i, 3j, 3k, 3l and 3n) were prepared in DMSO. The control reaction, without enzyme, was prepared by adding 3000 μL of buffer to the reaction vessel along with 56.25 μL of the stock solution. The test reaction, with enzyme, was prepared by adding 2999 μL of buffer to the reaction vessel along with 56.25 μL of TMZ ester. The final concentration of TMZ esters in the reaction vessels was 1.47 mg/100 mL. Porcine liver esterase (1 μL) was added to the test reaction at zero time (minutes). Both the control and test reactions were then incubated at 37 °C. Aliquots of 200 μL were transferred from the reaction vessels to 2 mL Eppendorf tubes, at 3 minute intervals for 30 minutes. The reaction was quenched by adding 200 μL of acetonitrile. […]

1321-N1 = assay: CellTiter-Glo cytotoxicity against 1321-N1 cells; format: cell-based; conditions: Homo sapiens, 144 hours incubation, IC50 ± SD (n = 3)
Method: as §1, §2, §3, §4

U87-MG cells = assay: CellTiter-Glo cytotoxicity against U87-MG cells; format: cell-based; conditions: Homo sapiens, U-87 MG, 144 hours incubation, IC50 ± SD (n = 3)
Method: as §1, §2, §3, §4

BTNW914 (MGMT−) = assay: Cell viability of patient derived primary GBM culture BTNW914 (MGMT−); format: cell-based, human; conditions: Homo sapiens, 144 h; 6 days incubation; read-out: IC50 against MGMT devoid GBM primary cells
Method: as §5, §6, §2, §3

- melting point: 192 °C
- Time taken to hydrolyse 50% of the ester [1]: 13.7 min
Compound: Cn1nnc2c(C(=O)Oc3ccc(C#N)cc3)ncn2c1=O [Analogue 3k, 4-Cyanophenyl 3-methyl-4-oxo-3,4-dihydroimidazo[5,1-d][1,2,3,5]tetrazine-8-carboxylate]
- IC50 (GOS-3): 151 ± 4 µM
- IC50 (SVGp12): 36 ± 3 µM
- cytotoxicity against MGMT positive patient derived primary culture (BTNW374 (MGMT+)): generated cytotoxicity at 75 μM
- IC50 (1321-N1): 103 ± 7 µM
- IC50 (U87-MG cells; initial screening, CellTiter-Glo, read-out: IC50 against U87-MG cells): 138 ± 7 µM
- IC50 (U87-MG cells; lead analogues (Table 2), read-out: IC50 U87-MG): 137 ± 7 µM
- IC50 (BTNW914 (MGMT−)): < 15 µM
